Measurements: US20260102388A1 (priority 2022, published 2026)

Test system: SD rats
Assay: Effect of compound implant of naltrexone on spontaneous activity
Details: implants 3 tablets/animal (diazepam 2 mg/kg), 60 min recording, X ± SEM
Protocol: Test animals: SPF-grade Sprague-Dawley (SD) rats, weighing 200±20 g, and they were fed adaptively.
Animal grouping and administration: Animals were divided into 8 groups with 12 animals in each group, half male and half female. In the experiment, animals were divided into positive control group (diazepam group, with a dose of 2 mg/kg), negative control group (normal saline), Example 1 group, Example 2 group, Comparative Example 2 group, Comparative Example 4 group, Comparative Example 5 group (dose: 3 tablets/animal), and fasten for 12 h before administration. The dosage volume for rats was 10 mL/kg.
The experiment was divided into three periods: adaptation period, pre-testing period and post-administration testing period. […]
Open field adaptation: After environmental adaptation, single rat/mouse was put into a spontaneous activity box for 60 min to adapt to the experiment box, and the spontaneous activity within 60 min was recorded, the general adaptation was 2-3 days to reduce the impact of environmental stimulation.
Baseline test: Single rat/mouse was put into a spontaneous activity box for 40 min to adapt to the experimental box, and spontaneous activity within 40 min was recorded, then divided equally to groups according to basic spontaneous activity. […]
Data were expressed as Mean±SEM. […]

## CN1C(=O)CN=C(c2ccccc2)c2cc(Cl)ccc21 [Positive control group, diazepam]
  total distance of activity: 9698.94 ± 902.16 mm
